# Results published in ChEMBL document CHEMBL1144164, “Carbonic anhydrase inhibitors: inhibition of the beta-class enzymes from the fungal pathogens Candida albicans and Cryptococcus neoformans with simple anions” (Bioorg Med Chem Lett, 2008).
# Experiments:
# [1] = biological target: Carbonic anhydrase 1 (Homo sapiens) (UniProt P00915)
# Description: Inhibition of human carbonic anhydrase 1 at 20 degC by CO2 hydration method
# [2] = biological target: Carbonic anhydrase 2 (Homo sapiens) (UniProt P00918)
# Description: Inhibition of human carbonic anhydrase 2 at 20 degC by CO2 hydration method
# [3] = biological target: T1, Carbonic anhydrase (Methanobacterium thermoautotrophicum) (UniProt Q50565); conditions: Methanothermobacter thermautotrophicus
# T1 sequence (whole entry): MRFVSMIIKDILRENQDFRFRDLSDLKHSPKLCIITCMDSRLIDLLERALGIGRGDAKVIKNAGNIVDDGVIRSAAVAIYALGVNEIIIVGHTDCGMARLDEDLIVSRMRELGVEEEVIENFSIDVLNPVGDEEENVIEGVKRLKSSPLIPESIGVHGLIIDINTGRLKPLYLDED
# Description: Inhibition of Methanobacterium thermoautotrophicum Cab at 20 degC by CO2 hydration method
# Description for Cryptococcus neoformans: Inhibition of Cryptococcus neoformans Can2 at 20 degC by CO2 hydration method
# Carbonic anhydrase 1 (Homo sapiens), sequence (P00915 2-261 limits assumed): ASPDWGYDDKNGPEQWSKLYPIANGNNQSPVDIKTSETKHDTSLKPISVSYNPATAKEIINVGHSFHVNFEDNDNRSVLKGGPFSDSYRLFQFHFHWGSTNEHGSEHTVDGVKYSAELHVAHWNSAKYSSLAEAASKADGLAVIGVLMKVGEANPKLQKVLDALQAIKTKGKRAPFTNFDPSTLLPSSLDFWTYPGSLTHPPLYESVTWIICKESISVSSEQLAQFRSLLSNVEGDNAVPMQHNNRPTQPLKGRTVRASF
smiles,measurement,setting,value
NS(=O)(=O)O,Kinact,[1],0.021 mM
same,Kinact,[2],0.39 mM
same,Kinact,[3],44 mM
same,Kinact,Cryptococcus neoformans,8.22 mM
